Experimental data published in patent US20150197500A1, “NO-RELEASING GUANIDINE-CHROMENE CONJUGATES” (Euclises Pharmaceuticals, Inc., priority 2014, published 2015).
Structures can show the parent of a compound that is named as a salt.

Test system: PGE2 production
Test: Rat air-pouch model for acute inflammation (PGE2 in exudate by ELISA)
Assay type: in vivo, Sprague-Dawley rats
Details: oral gavage 0.01 mmol/kg 2 h before carrageenan, exudate 4 h after carrageenan, 6 rats/group
Protocol: A study of chromene release is assessed by measurement of PGE2 levels, which are indicative of inflammatory response.
Animals: Sprague-Dawley rats (Charles River Laboratories, R #3234, PO #738990, male, 160-180 g) are received, individually examined, and housed in cages of five rats each. The rats are ear notched for identification purposes.
Compounds and dosing solutions: The vehicle is prepared by dissolving 40 g (2-hydroxypropyl)-[…] making a 25% solution which is filter sterilized (0.2 μm, Nalgene, Cat. 151-4020, lot 1095610). […]
Day 6—Compound administration and carrageenan insult: At commencement of the study, each rat is weighed and sorted into treatment groups of 6 rats/group based upon average weight. […] The pouch is gently massaged, the exudate immediately removed, and exudate volume recorded. […]
Data analysis: The exudate samples are thawed to room temperature and assayed by ELISA for PGE2 (R&D Systems, Cat. KGE004B, lot 307711). Statistical significance of treatments on mean exudate volumes are determined by comparison of means for treatment groups with vehicle group. Mean cytokine concentrations and standard deviations are determined for each group. […] Statistical significance (p-value) is calculated vs control groups by Student's t-Test. […]

Structure (SMILES): CC(=O)NC(CCCNC(=N)N)C(=O)OCOC(=O)C1=Cc2cc(Cl)c(C(C)(C)C)cc2OC1C(F)(F)F (stereo not shown) [Example 33a, trifluoroacetate salt]
- % Inhibition of PGE2 production relative to control (+/−S.D.): 75.7 (+/−11.9) %
